Source: patent publication US20180361032A1, “IMPLANTABLE ELECTROSPUN PATCHES FOR SITE-DIRECTED DRUG DELIVERY” (The Methodist Hospital, priority 2016, published 2018)

System: inflammation induced by the implant
Experiment: Expression of inflammation-related genes in sciatic nerve and surrounding muscle tissue after implant
Type: in vivo, rodent
Conditions: release of bupivacaine from the implant
Text: FIG. 13A, FIG. 13B, FIG. 13C, FIG. 13D, and FIG. 13E show the expression of genes related to inflammation in sciatic nerve tissue: TNF-α (FIG. 13A); IL-1β (FIG. 13B); IL-6 (FIG. 13C); PTGS2 (COX-2) (FIG. 13D); and NOS2 (FIG. 13E); respectively; FIG. 14A, FIG. 14B, FIG. 14C, FIG. 14D, and FIG. 14E show the expression of genes related to inflammation in surrounding muscle tissue: COX-2 expression (FIG. 14A); IL-6 expression (FIG. 14B); TNF-α expression (FIG. 14C); IL-1β expression (FIG. 14D); and iNOS expression (FIG. 14E);

CCCCN1CCCCC1C(=O)Nc1c(C)cccc1C (stereo not shown) [bupivacaine]
inflammation induced by the implant: decreased the inflammation induced by the implant
